Measurements as given in patent US9351955B2, “Compounds and pharmaceutical compositions thereof for the treatment of cystic fibrosis” (Galapagos NV, priority 2013, dated 2016).
pEC50: −log10 of the molar value.

Experiments:
CFTR-G178R = target: T1, CFTR-G178R (Homo sapiens, UniProt P13569, G178R); assay: YFP-halide influx assay for the CFTR-G178R; type: cell-based; conditions: read-out: EC50 measured by YFP-halide influx assay for the CFTR-G178R
T1 construct: expressed in transfected cells
How it was run: (§1)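 HEK293 cells reverse-transfected with mutant CFTR and halide-sensitive YFP H148Q/I152L/F47L reporter, then expressed 24 h at 37 °C, 5% CO2. Fluorescence quenching recorded for 7 s after I^− injection; response expressed as 1−F/F0, with EC50 derived from response versus compound concentration.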

CFTR-S549N = target: T2, CFTR-S549N (Homo sapiens, UniProt P13569, S549N); assay: YFP-halide influx assay for the CFTR-S549N; type: cell-based; conditions: CFTR-S549N mutant; read-out: EC50 measured by YFP-halide influx assay for the CFTR-S549N
T2 construct: expressed in transfected cells
How it was run: as §1

CFTR-G1349D = target: T3, CFTR-G1349D (Homo sapiens, UniProt P13569, G1349D); assay: YFP-halide influx assay for the CFTR-G1349D; type: cell-based; conditions: CFTR-G1349D mutant; read-out: EC50 measured by YFP-halide influx assay for the CFTR-G1349D
T3 construct: expressed in transfected cells
How it was run: as §1

CFTR G551D mutant = target: T4, CFTR G551D mutant (Homo sapiens, UniProt P13569, G551D); assay: YFP-halide influx assay for the CFTR-G551D mutation (HEK293 cells); type: cell-based; conditions: HEK293 cells expressing CFTR G551D and YFP reporter; forskolin 10.67 μM; read-out: EC50 measured by YFP-halide influx assay for the CFTR-G551D
T4 construct: expressed in transfected cells; host or cells: HEK293 (reverse transfection with plasmids)
How it was run: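 HEK293 cells reverse-transfected with CFTR G551D and halide-sensitive YFP, expressed 24 h at 37 °C. Iodide-induced fluorescence quench recorded for 7 s after I^− injection; response as 1−F/F0, EC50 from concentration plot.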

CFTR ΔF508 mutant [1] = target: T5, CFTR ΔF508 mutant (Homo sapiens, UniProt P13569, DEL508-508); assay: YFP-halide influx assay for the CFTR-ΔF508 mutation (384 well, CFBE41o- cells, FDSS/μCell); type: cell-based; conditions: forskolin 10.67 μM, fluorescence after 36 seconds, read-out: EC50 measured by YFP-halide influx assay for the CFTR-ΔF508
T5 construct: expressed in transfected cells; host or cells: CFBE41o- (adenoviral transduction)
How it was run: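 CFBE41o- cells were adenovirally transduced with ΔF508 CFTR and the YFP H148Q/I152L reporter. Cells were then held 24 h at 27 °C or treated 24 h at 37 °C with a CFTR modulator. Iodide-induced quench was recorded for 2 min, and EC50 was derived from 1−F/F0 at 36 s against compound concentration.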

CFTR-R117H = target: T6, CFTR-R117H (Homo sapiens, UniProt P13569, R117H); assay: YFP-halide influx assay for the CFTR-R117H; type: cell-based; conditions: CFTR-R117H mutant; read-out: EC50 measured by YFP-halide influx assay for the CFTR-R117H
T6 construct: expressed in transfected cells
How it was run: as §1

CFTR G551D = CFTR G551D (Homo sapiens, UniProt P13569, G551D); assay: TECC assay, FRT cells stably transfected with G551D CFTR; type: cell-based; conditions: high expression CFTR-G551D cells, several values in a cell = repeat determinations
Procedure: 7.2.3. FRT-CFTR G551D Protocol
For G551D recordings, Fish Rat Thyroid (FRT) cells stably transfected with G551D CFTR (a low CFTR-G551D expressing cell line and a high expressing CFTR-G551D cell line from Rosalind Franklin University of medicine and science, Chicago, Ill.) are plated on Transwell supports (Costar 6.5 mm Diameter, […]). The cells are grown for 8-10 d under liquid-liquid interface conditions prior to electrophysiological readings. For electrophysiological recording, the FRT-G551D cells are mounted in the TECC heating plate for electrophysiological measurement and kept at 37° C. The epithelia are bathed in hepes buffered culturing medium without FBS on both the basolateral and apical sides. Apical amiloride is used to inhibit the endogenous ENaC currents while forkolin is applied on both apical and basolateral side to stimulate CFTR. After forskolin triggering, compounds are added on both sides to test their potential for increasing CFTR gating. Measurements are done during a 10 minute timeframe with recordings every 2 min. The increase in ISC is used as a measure for the increased CFTR activity, EC50 values can be generated by measuring impact of different concentrations of compound on ISC on the cells, for this purpose each transwell is treated with a different compound concentration. Inh-172, an inhibitor specific for CFTR, is used to test the specificity of the tested compounds.
When subjected to this protocol, the following EC50 are measured.

CFTR ΔF508 = target: T7, CFTR ΔF508 (Homo sapiens, UniProt P13569, DEL508-508); assay: TECC assay, primary bronchial epithelial cells from CF patients homozygous for CFTR ΔF508; type: cell-based; conditions: primary bronchial epithelial cells, CFTR ΔF508; several values in a cell = repeat determinations
T7 construct: host or cells: primary bronchial epithelial cells from CF patients homozygous for ΔF508, pre-treated with VX809
Procedure: 7.2.1. Primary Bronchial Epithelial Cells Protocol
The TECC (Tranepithelial Clamp Circuit, EP-design) assay measures the functionality of the cystic fibrosis Transmembrane Conductance regulator (CFTR) by measuring the short circuit current (ISC) generated over the basolateral and apical membrane of lung epithelial cells. In TECC the transepithelial potential PD and transepithelial resistance (Rt) are measured in an open circuit and transformed to ISC using Ohm's law. 24 wells can be measured simultaneously allowing a higher throughput compared to Ussing chambers.
For this purpose, bronchial epithelial cells isolated from CF patients homozygous for the CFTR ΔF508 mutation (hAEC-CF, Epithelix) are plated on type IV collagen-coated Transwell supports (Costar). Human airway epithelia are generated by provision of an air-liquid interface for 21 days to form well-differentiated polarized cultures that resemble in vivo pseudo-stratified ciliated epithelium (Fulcher et al., 2005). In the case of the homozygous ΔF508 CFTR samples, the differentiated cells are treated with 3 μM VX809 (2626 South Loop West, Suite 225, Houston, Tex. 77054 USA, Cat n#51565) to allow sufficient expression of properly folded CFTR protein on the membrane (48 hours basolateral treatment and 24 hours apical treatment), prior to electrophysiological recordings. […] G551D/ΔF508, differentiated cells are used as such for the recordings.
Information on the compounds can be retrieved on the homozygous ΔF508 CFTR samples looking at increased CFTR activity when compounds are added in an acute mode or in a chronic mode. On G551D/ΔF508 CFTR heterozygous samples compounds are added in an acute mode to the differentiated cells.
For the acute mode, for electrophysiological recording, the human airway epithelia are mounted in the TECC heating plate for electrophysiological measurement and kept at 37° C. The epithelia are bathed in a NaCl-Ringer solution (120 mM NaCl, 25 mM NaHCO3, 1.2 mM CaCl2, 1.2 mM MgCl2, 0.8 mM KH2PO4, 0.8 mM K2HPO4, pH 7.4, 5 mM glucose) on both the basolateral and apical sides. Apical amiloride is used to inhibit the endogenous ENaC currents while forkolin is applied on both apical and basolateral side to stimulate CFTR. After forskolin triggering, compounds are added on both sides to test their potential for increasing CFTR gating. Measurements are done during a 20 minute timeframe with recordings every 2 minutes. The increase in ISC is used as a measure for the increased CFTR activity, EC50 values can be generated by measuring impact of different concentrations of compound on ISC on primary cells, for this purpose each transwell is treated with a different compound concentration. Inh-172, an inhibitor specific for CFTR, is used to test the specificity of the tested compounds.
For the chronic mode, the differentiated cells are treated with 3 μM VX809 (2626 South Loop West, Suite 225, Houston, Tex. 77054 USA, Cat n#51565) and potentiator compounds at different concentrations (48 hours basolateral treatment and 24 hours apical treatment), prior to electrophysiological recordings. For electrophysiological recording, the human airway epithelia are mounted in the TECC heating plate for electrophysiological measurement and kept at 37° C. […]

CFTR ΔF508 mutant [2] = target: T5, CFTR ΔF508 mutant; assay: YFP-halide influx assay for the CFTR-ΔF508 mutation (96 well, CFBE41o- cells); type: cell-based; conditions: compounds of the invention, 96 well, forskolin 10.67 μM, read-out: EC50 measured by YFP-halide influx assay for the CFTR-ΔF508
How it was run: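 CFBE41o- cells were adenovirally transduced with CFTR ΔF508 and the halide-sensitive YFP H148Q/I152L. They were then corrected either at 27 °C for 24 h or with a CFTR modulator for 24 h at 37 °C. After iodide injection, YFP quenching over 7 s was expressed as 1−F/F0, and EC50 was derived from the concentration–response plot.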

Lung distribution study = type: in vivo, Sprague-Dawley rats; conditions: male, Sprague-Dawley, rat, plasma, oral, 10 mg/kg, exposure values
Procedure: Sprague-Dawley rats (male, 5-6 weeks old) are obtained from Janvier (France). Rats are acclimatized for at least 5 days before treatment and are kept on a 12 h light/dark cycle. Temperature is maintained at approximately 22° C., and food and water are provided ad libitum. Two days before administration of the test compounds, rats may undergo surgery to place a catheter in the jugular vein under isoflurane anesthesia. After the surgery, rats are housed individually. Rats are deprived of food for at least 16 h before oral dosing and 6 h after. Water is provided ad libitum.
8.7.3. Lung Distribution Studies
Compounds are formulated in 0.5% methylcellulose and EtOH/PEG 200/Methylcellulose 0.5% (10/25/65 v/v/v) by the oral route. Test compounds are orally dosed as a single esophageal gavage at 10 mg/kg under a dosing volume of 5 mL/kg. Each group consists of 12 rats. At each time point, typically 1, 3, 6 and 24 h, animals are euthanized and blood and lung samples are collected. Whole blood samples are centrifuged at 1500 g for 10 min and the resulting plasma samples, along with the lung samples, are stored at −20° C. pending analysis.
8.7.4. Quantification of Compound Levels in Plasma and Lung Samples
Lung samples are milled in the presence of ceramic beads and proteins present in plasma and lung samples are precipitated with an organic solvent. Concentrations of each test compound are determined by an LC-MS/MS method in which the mass spectrometer is operated in positive or negative electrospray mode.
For each animal, the lung-to-plasma ratio is determined as the ratio between compound concentration in lung and in plasma. At each sampling time point, mean, standard error of the mean (sem) and coefficient of variation (CV %) are calculated using data from three animals.

T4 sequence (P13569 whole entry G551D): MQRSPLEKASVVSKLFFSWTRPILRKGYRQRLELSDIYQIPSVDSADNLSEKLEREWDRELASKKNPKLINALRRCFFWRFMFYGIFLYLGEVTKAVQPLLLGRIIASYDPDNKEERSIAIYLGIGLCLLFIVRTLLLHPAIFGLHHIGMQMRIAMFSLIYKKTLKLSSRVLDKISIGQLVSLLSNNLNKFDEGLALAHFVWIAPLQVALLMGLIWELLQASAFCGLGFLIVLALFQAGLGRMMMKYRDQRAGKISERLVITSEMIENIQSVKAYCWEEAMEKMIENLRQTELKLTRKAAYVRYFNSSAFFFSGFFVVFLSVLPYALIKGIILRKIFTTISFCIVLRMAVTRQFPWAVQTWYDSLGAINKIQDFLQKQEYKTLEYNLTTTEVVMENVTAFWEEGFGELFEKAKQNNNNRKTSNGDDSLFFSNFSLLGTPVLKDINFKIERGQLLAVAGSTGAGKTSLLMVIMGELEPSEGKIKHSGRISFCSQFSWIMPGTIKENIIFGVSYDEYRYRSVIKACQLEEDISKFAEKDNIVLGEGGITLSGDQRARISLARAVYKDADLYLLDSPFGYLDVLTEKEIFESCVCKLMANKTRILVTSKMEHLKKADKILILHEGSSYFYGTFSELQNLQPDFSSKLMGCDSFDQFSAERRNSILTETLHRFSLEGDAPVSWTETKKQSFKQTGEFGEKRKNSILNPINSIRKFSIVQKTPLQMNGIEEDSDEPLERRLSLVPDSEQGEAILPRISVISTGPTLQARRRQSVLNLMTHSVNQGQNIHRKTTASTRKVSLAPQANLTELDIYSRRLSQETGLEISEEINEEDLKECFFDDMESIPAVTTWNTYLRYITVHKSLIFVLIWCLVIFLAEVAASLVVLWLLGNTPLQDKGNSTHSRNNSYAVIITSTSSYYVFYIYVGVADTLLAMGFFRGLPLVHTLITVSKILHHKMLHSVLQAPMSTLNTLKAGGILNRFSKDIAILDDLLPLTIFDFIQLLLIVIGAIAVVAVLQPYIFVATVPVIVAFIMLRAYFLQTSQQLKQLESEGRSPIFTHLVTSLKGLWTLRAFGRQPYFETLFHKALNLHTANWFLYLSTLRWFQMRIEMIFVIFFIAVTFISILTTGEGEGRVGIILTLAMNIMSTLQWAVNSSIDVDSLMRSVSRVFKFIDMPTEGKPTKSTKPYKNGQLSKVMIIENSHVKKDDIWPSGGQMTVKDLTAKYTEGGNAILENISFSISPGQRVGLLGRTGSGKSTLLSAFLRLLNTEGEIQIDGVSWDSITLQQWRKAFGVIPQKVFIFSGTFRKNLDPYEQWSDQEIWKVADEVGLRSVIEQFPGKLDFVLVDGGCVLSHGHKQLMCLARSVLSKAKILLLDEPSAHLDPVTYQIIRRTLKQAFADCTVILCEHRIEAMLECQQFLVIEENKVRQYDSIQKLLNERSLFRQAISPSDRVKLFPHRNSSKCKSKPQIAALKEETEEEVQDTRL
Sequence of CFTR G551D (P13569 whole entry G551D): as above
T1 sequence (P13569 whole entry G178R): as the sequence (P13569 whole entry G551D) above, with G178R, D551G counted along it
T3 sequence (P13569 whole entry G1349D): as the sequence (P13569 whole entry G551D) above, with D551G, G1349D counted along it
T2 sequence (P13569 whole entry S549N): as the sequence (P13569 whole entry G551D) above, with S549N, D551G counted along it
T5 sequence (P13569 with tags, fused parts or gaps DEL508-508): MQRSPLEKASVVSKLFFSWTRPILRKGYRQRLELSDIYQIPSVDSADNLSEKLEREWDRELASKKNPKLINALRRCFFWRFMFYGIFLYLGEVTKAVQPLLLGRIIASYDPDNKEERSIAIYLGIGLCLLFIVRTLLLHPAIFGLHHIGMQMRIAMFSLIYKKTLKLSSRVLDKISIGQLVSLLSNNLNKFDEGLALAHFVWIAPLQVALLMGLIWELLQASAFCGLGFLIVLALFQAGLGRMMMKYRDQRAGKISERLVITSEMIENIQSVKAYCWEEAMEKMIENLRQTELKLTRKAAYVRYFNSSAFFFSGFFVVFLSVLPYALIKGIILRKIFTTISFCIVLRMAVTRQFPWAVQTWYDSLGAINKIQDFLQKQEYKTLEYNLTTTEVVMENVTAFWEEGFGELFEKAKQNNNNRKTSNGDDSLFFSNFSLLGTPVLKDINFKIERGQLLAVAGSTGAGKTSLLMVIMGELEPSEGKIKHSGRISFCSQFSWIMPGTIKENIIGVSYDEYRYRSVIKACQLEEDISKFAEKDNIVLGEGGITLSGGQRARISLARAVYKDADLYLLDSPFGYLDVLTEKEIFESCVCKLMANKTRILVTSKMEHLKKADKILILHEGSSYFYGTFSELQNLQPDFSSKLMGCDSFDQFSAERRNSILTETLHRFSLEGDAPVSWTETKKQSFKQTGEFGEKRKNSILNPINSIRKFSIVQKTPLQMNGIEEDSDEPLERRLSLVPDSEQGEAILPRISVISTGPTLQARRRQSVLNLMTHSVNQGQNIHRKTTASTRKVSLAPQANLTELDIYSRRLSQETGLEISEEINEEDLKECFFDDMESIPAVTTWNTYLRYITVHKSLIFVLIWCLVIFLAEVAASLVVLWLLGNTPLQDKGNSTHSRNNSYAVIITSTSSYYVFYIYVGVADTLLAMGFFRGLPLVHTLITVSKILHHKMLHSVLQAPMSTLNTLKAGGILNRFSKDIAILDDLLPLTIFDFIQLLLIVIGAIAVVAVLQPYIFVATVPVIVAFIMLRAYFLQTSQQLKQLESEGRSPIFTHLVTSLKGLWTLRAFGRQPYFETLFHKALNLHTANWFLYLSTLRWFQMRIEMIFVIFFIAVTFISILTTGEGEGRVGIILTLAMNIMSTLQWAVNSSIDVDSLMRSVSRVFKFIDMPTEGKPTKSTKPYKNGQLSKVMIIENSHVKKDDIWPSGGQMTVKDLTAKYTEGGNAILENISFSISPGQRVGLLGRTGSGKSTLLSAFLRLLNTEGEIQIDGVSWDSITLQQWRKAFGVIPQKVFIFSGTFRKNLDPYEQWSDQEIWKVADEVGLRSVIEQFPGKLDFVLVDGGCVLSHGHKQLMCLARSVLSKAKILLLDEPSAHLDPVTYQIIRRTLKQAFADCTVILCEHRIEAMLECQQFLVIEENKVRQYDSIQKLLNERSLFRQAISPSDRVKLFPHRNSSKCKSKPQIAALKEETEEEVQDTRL
T6 sequence (P13569 whole entry R117H): as the sequence (P13569 whole entry G551D) above, with R117H, D551G counted along it
T7 sequence (P13569 with tags, fused parts or gaps DEL508-508): as the sequence (P13569 with tags, fused parts or gaps DEL508-508) above

Row | Structure (SMILES) | pEC50 (CFTR-G178R) | pEC50 (CFTR-S549N) | pEC50 (CFTR-G1349D) | pEC50 (CFTR G551D mutant) | pEC50 (CFTR ΔF508 mutant [1]) | pEC50 (CFTR-R117H) | pEC50 (CFTR G551D) | pEC50 (CFTR ΔF508) | pEC50 (CFTR ΔF508 mutant [2]) | AUC(0-t) (Lung distribution study) [ng·h/mL]
1 | CC(C)(C)CC(O)C(=O)Nc1sc2c(c1C(N)=O)CC(C)(C)OC2(C)C (single isomer, unassigned) [Compound 110, 2-[[2-hydroxy-4,4-dimethyl-pentanoyl]amino]-5,5,7,7-tetramethyl-4H-thieno[2,3-c]pyran-3-carboxamide] | 7.65 | 6.58 | 6.85 | 6.68 | 9.18 | 7.30 | 6.72 |  |  | 
2 | CC1(C)Cc2c(sc(NC(=O)c3cnco3)c2C(N)=O)C(C)(C)O1 [Compound 136, N-(3-carbamoyl-5,5,7,7-tetramethyl-4H-thieno[2,3-c]pyran-2-yl)oxazole-5-carboxamide] | 6.10 | 5.58 | 5.92 | 5.60 | 7.09 | 6.09 | 4.20 |  |  | 
3 | COCc1c[nH]nc1C(=O)Nc1sc2c(c1C(N)=O)CC(C)(C)OC2(C)C [Compound 105, N-(3-carbamoyl-5,5,7,7-tetramethyl-4H-thieno[2,3-c]pyran-2-yl)-4-(methoxymethyl)-1H-pyrazole-3-carboxamide] | 7.26 | 6.53 | 6.92 | 6.14 | 8.18 | 6.36 |  | 7.26 |  | 
4 | CC1(C)Cc2c(sc(NC(=O)C3(O)CCOCC3)c2C(N)=O)C(C)(C)O1 [Compound 154, 2-[(4-hydroxytetrahydropyran-4-carbonyl)amino]-5,5,7,7-tetramethyl-4H-thieno[2,3-c]pyran-3-carboxamide] | 5.48 | 5.62 | 5.48 |  | 7.20 | 5.80 |  | 6.30 |  | 
5 | CCc1cc(C(=O)Nc2sc3c(c2C(N)=O)CC(C)(C)OC3(C)C)n[nH]1 [Compound 17, N-(3-carbamoyl-5,5,7,7-tetramethyl-5,7-dihydro-4H-thieno[2,3-c]pyran-2-yl)-5-ethyl-1H-pyrazole-3-carboxamide] |  |  |  | 6.72 | 7.99 |  |  |  | 7.81 | 290
6 | Cc1cn[nH]c1C(=O)Nc1sc2c(c1C(N)=O)CC(C)(C)OC2(C)C [Compound 35, N-(3-carbamoyl-5,5,7,7-tetramethyl-5,7-dihydro-4H-thieno[2,3-c]pyran-2-yl)-4-methyl-1H-pyrazole-3-carboxamide] | 7.36 | 6.92 | 6.93 | 6.74 | 8.61 | 6.74 | 7.36 |  | 8.52 | 
